Test results from patent US11992481B2, “Use of 2-substituted indazoles for the treatment and prophylaxis of autoimmune diseases” (Bayer Pharma Aktiengesellschaft, priority 2016, dated 2024).

system: THP-1 cells; test: TNF-α secretion in THP-1 cells (LPS-triggered); type: cell-based; settings: Homo sapiens, 0.05 μg/ml LPS, 17 h, read-out: IC50 with respect to the secretion of TNF-α in THP-1 cells
Procedure: With the aid of this test, it is possible to test substances for their ability to inhibit secretion of TNF-α (tumour necrosis factor alpha) in THP-1 cells (human monocytic acute leukaemia cell line). […] In this test, TNF-α secretion is triggered by incubation with bacterial lipopolysaccharide (LPS).
The cells were incubated at room temperature for 15 min. 2-2.5 μl of 0.1 μg/ml LPS (Sigma, Escherichia coli 055:B5, Cat. No. L5418) dissolved in cell culture medium (final concentration 0.05 μg/ml) were then dispensed into each well. As neutral control, cells were treated with 0.05 μg/ml LPS and 1% DMSO and, as inhibitor control, with 1% DMSO only.
The amount of TNF-α was determined using the TNF-alpha HTRF Detection Kit (Cisbio, Cat. No. 62TNFPEB/C). To this end, 2 μl of the detection solution in each case, consisting of anti-TNF-α-XL665 conjugate and anti-TNF-α-cryptate conjugate dissolved in the reconstitution buffer in accordance with the manufacturer's instructions, were added for the HTRF (Homogeneous Time-Resolved Fluorescence) test. After the addition, the mixture was incubated either at room temperature for 3 h or at 4° C. overnight.
The activity of the substances is expressed as the ratio between neutral and inhibitor control in percent. The IC50 values were calculated using a 4-parameter fit.

| Compound | IC50 [nM] |
| --- | --- |
| COCCn1cc2cc(NC(=O)c3cccc(C(F)(F)F)n3)c(C(C)(C)O)cc2n1 [Example 1, N-[6-(2-Hydroxypropan-2-yl)-2-(2-methoxyethyl)-2H-indazol-5-yl]-6-(trifluoromethyl)pyridine-2-carboxamide] | 1 |
| COCCn1cc2cc(NC(=O)c3cccc(C(F)(F)F)n3)c(CO)cc2n1 [Example 2, N-[6-(Hydroxymethyl)-2-(2-methoxyethyl)-2H-indazol-5-yl]-6-(trifluoromethyl)pyridine-2-carboxamide] | 15.1 |
| COCCCn1cc2cc(NC(=O)c3cccc(C(F)(F)F)n3)c(CO)cc2n1 [Example 4, N-[6-(Hydroxymethyl)-2-(3-methoxypropyl)-2H-indazol-5-yl]-6-(trifluoromethyl)pyridine-2-carboxamide] | 5.6 |
| CC(C)(O)c1cc2nn(CCO)cc2cc1NC(=O)c1cccc(C(F)(F)F)n1 [Example 5, N-[2-(2-Hydroxyethyl)-6-(2-hydroxypropan-2-yl)-2H-indazol-5-yl]-6-(trifluoromethyl)pyridine-2-carboxamide] | 5.4 |
| CC(C)(O)c1cc2nn(CCCO)cc2cc1NC(=O)c1cccc(C(F)(F)F)n1 [Example 6, N-[6-(2-Hydroxypropan-2-yl)-2-(3-hydroxypropyl)-2H-indazol-5-yl]-6-(trifluoromethyl)pyridine-2-carboxamide] | 0.9 |
| O=C(Nc1cc2cn(CCO)nc2cc1CO)c1cccc(C(F)(F)F)n1 [Example 7, N-[2-(2-Hydroxyethyl)-6-(hydroxymethyl)-2H-indazol-5-yl]-6-(trifluoromethyl)pyridine-2-carboxamide] | 16.4 |
| CC(C)(O)c1cc2nn(CC3COC3)cc2cc1NC(=O)c1cccc(C(F)(F)F)n1 [Example 8, N-[6-(2-Hydroxypropan-2-yl)-2-(oxetan-3-ylmethyl)-2H-indazol-5-yl]-6-(trifluoromethyl)pyridine-2-carboxamide] | 1 |
| O=C(Nc1cc2cn(CC3COC3)nc2cc1CO)c1cccc(C(F)(F)F)n1 [Example 9, N-[6-(Hydroxymethyl)-2-(oxetan-3-ylmethyl)-2H-indazol-5-yl]-6-(trifluoromethyl)pyridine-2-carboxamide] | 6.5 |
| CC(C)(O)c1cc2nn(CCCS(C)(=O)=O)cc2cc1NC(=O)c1cccc(C(F)(F)F)n1 [Example 10, N-{6-(2-Hydroxypropan-2-yl)-2-[3-(methylsulphonyl)propyl]-2H-indazol-5-yl}-6-(trifluoromethyl)pyridine-2-carboxamide] | 1 |
| CC(C)(O)CCn1cc2cc(NC(=O)c3cccc(C(F)F)n3)c(C(C)(C)O)cc2n1 [Example 13, 6-(Difluoromethyl)-N-[2-(3-hydroxy-3-methylbutyl)-6-(2-hydroxypropan-2-yl)-2H-indazol-5-yl]pyridine-2-carboxamide] | 0.1 |
| CC(C)(O)c1cc2nn(CCS(C)(=O)=O)cc2cc1NC(=O)c1cccc(C(F)F)n1 [Example 14, 6-(Difluoromethyl)-N-{6-(2-hydroxypropan-2-yl)-2-[2-(methylsulphonyl)ethyl]-2H-indazol-5-yl}pyridine-2-carboxamide] | 0.2 |
| CC(C)(O)c1cc2nn(CCCO)cc2cc1NC(=O)c1cccc(C(F)F)n1 [Example 15, 6-(Difluoromethyl)-N-[6-(2-hydroxypropan-2-yl)-2-(3-hydroxypropyl)-2H-indazol-5-yl]pyridine-2-carboxamide] | 0.2 |
| CC(C)(O)c1cc2nn(CCCC(F)(F)F)cc2cc1NC(=O)c1cccc(C(F)(F)F)n1 [Example 16, N-[6-(2-Hydroxypropan-2-yl)-2-(4,4,4-trifluorobutyl)-2H-indazol-5-yl]-6-(trifluoromethyl)pyridine-2-carboxamide] | 0.2 |
| CC(C)(O)c1cc2nn(CCCOC(F)(F)F)cc2cc1NC(=O)c1cccc(C(F)(F)F)n1 [Example 17, N-{6-(2-Hydroxypropan-2-yl)-2-[3-(trifluoromethoxy)propyl]-2H-indazol-5-yl}-6-(trifluoromethyl)pyridine-2-carboxamide] | 0.5 |
| CC(C)(O)c1cc2nn(CCCOCC(F)(F)F)cc2cc1NC(=O)c1cccc(C(F)(F)F)n1 [Example 18, N-{6-(2-Hydroxypropan-2-yl)-2-[3-(2,2,2-trifluoroethoxy)propyl]-2H-indazol-5-yl}-6-(trifluoromethyl)pyridine-2-carboxamide] | 0.3 |
| Cc1nc(C(=O)Nc2cc3cn(CCC(C)(C)O)nc3cc2C(C)(C)O)ccc1F [Example 19, 5-Fluoro-N-[2-(3-hydroxy-3-methylbutyl)-6-(2-hydroxypropan-2-yl)-2H-indazol-5-yl]-6-methylpyridine-2-carboxamide] | 0.1 |
| Cc1cccc(C(=O)Nc2cc3cn(CCC(C)(C)O)nc3cc2C(C)(C)O)n1 [Example 20, N-[2-(3-Hydroxy-3-methylbutyl)-6-(2-hydroxypropan-2-yl)-2H-indazol-5-yl]-6-methylpyridine-2-carboxamide] | 0.2 |
| CC(C)(O)c1cccc(C(=O)Nc2cc3cn(CCCC(F)(F)F)nc3cc2C(C)(C)O)n1 [Example 21, 6-(2-Hydroxypropan-2-yl)-N-[6-(2-hydroxypropan-2-yl)-2-(4,4,4-trifluorobutyl)-2H-indazol-5-yl]pyridine-2-carboxamide] | 1.8 |
